The values that follow come from publication PMC12736018, “Stereoselective Cytotoxicity of Enantiopure 3,3-Dichloro-γ-lactams: Correlating In Vitro Activity with In Vivo Tolerability” (Molecules, 2025).

One data set deals with MCF-7 cells. As to the kind of experiment: MTT cell viability assay, MCF-7. To be noted: Homo sapiens, MCF7; MCF-7, MTT, 24 h. The class given is cell-based. As to the method:
(§1) The murine Swiss albino fibroblast (3T3), the immortal human keratinocyte (HaCaT), the squamous cell carcinoma (A431), the human epithelial carcinoma (HeLa) and the human breast adenocarcinoma (MCF-7) cell lines were sourced from Celltec UB (Barcelona, Spain). All cells were maintained and grown in DMEM medium (4.5 g/L glucose) supplemented with 10% (v/v) FBS, 2 mM L-glutamine, 100 U/mL penicillin and 100 μg/mL streptomycin at 37 °C, 5% CO2. Cells were routinely cultured in 75 cm^2 culture flasks and were trypsinized using trypsin-EDTA when the cells reached approximately 80%. Cell concentration in the resulting suspension was assessed using the trypan blue assay, which enables direct discrimination between viable (unstained) and non-viable (blue) cells.
(§2) T3 and HaCaT cells (1 × 10^5 cells/mL), along with A431, HeLa, and MCF-7 cells (5 × 10^4 cells/mL), were cultured at defined seeding densities in the 60 central wells of a 96-well plate. Cells were first incubated for 24 h under standard incubator conditions (5% CO2, 37 °C). After this period, the culture medium was removed, and the cells were incubated for an additional 24 h with their corresponding compound solutions (1 mg/mL) previously diluted in a minimum amount of DMF (dimethylformamide) and then in DMEM medium supplemented with 5% FBS (100 µL) at the required concentration range (20 to 250 µg/mL). Cell viability following exposure to the lactam derivatives was evaluated using two complementary assays: NRU and MTT.
Only living cells can reduce the yellow tetrazolium salt 3-(4,5-dimethyl-2-thiazolyl)-2,5-diphenyltetrazolium bromide (MTT) to insoluble purple formazan crystals. After a 24 h incubation of the cells with their corresponding NPs, the medium was removed and 100 µL of MTT (Sigma-Aldrich, St. Louis, MO, USA) in PBS (5 mg/mL) diluted 1:10 in culture medium without phenol red and without FBS (Lonza, Verviers, Belgium) was added to the cells. After 3 h of incubation, the medium was removed. Thereafter, 100 µL of DMSO (Sigma-Aldrich, St. Louis, MO, USA) was added to each well to dissolve the purple formazan crystals. Agitation and absorbance measurements of the extracted solution were carried out under the same conditions described for the NRU assay. The effect of each treatment was then expressed as the percentage of tetrazolium salt reduction by viable cells relative to untreated controls.
(§3) The half-maximal inhibitory concentration (IC50) values for the different formulations, across cell lines and experimental endpoints, were obtained by fitting the concentration-dependent viability curves. […] These findings reflect the very low cytotoxicity of the compounds toward these cell lines.
For orientation: Formazan colour is commonly taken as a measure of viable cells.

The nature of data set [1]: NRU cell viability assay, A431. The class given is cell-based, human. The following applies: human, A431 cells (squamous cell carcinoma), highest tested concentration (250 µg/mL). As to the method: as §1, §2
(§4) The neutral red uptake (NRU) assay is based on the accumulation of dye in the lysosomes of viable cells. After the cells were incubated for 24 h with the corresponding systems, the medium was removed, and the solutions were incubated with the NR dye (Sigma-Aldrich, St. Louis, MO, USA) solution (50 µg/mL) dissolved in the medium, without FBS and without phenol red (Lonza, Verviers, Belgium), for 3 h. Cells were then washed with sterile PBS, followed by the addition of 100 µL of a solution containing 50% absolute ethanol and 1% acetic acid in distilled water to extract the dye. To promote the total dissolution of the dye, plates were placed in a microtiter-plate shaker for 5 min at room temperature. The absorbance of the resulting solutions was measured at 550 nm (Bio-Rad 550 microplate reader, Bio-Rad California, Hercules, CA, USA). Finally, the effect of each treatment was calculated as the percentage of dye uptake by viable cells relative to the control cells (cells without any treatment). Finally, the effect of each treatment was calculated as the percentage of dye retained by viable cells compared with untreated control cells.
as §3

Data set [2] can be described thus: NRU cell viability assay, MCF-7. The class given is cell-based, human. The following applies: human, MCF-7 cells (breast adenocarcinoma), MCF-7, NRU, highest tested concentration (250 µg/mL). The procedure: as §1, §2, §4, §3
The nature of data set [3]: NRU cell viability assay, HeLa. To be noted: human, HeLa cells (epithelial carcinoma), highest tested concentration (250 µg/mL). It counts as cell-based, human. The procedure: as §1, §2, §4, §3

In brackets after ≈: the same amount, converted by molar mass.

As to `C[C@@H]1CN([C@@H](C)c2ccccc2)C(=O)C1(Cl)Cl` [Compound 3, (R)-3,3-dichloro-4-methyl-1-((S)-1-phenylethyl)pyrrolidin-2-one], the half-maximal inhibitory concentration (IC50) in the data set with MCF-7 cells is 193 µg/mL (≈ 708 µM). Also, the viability at 24 h, 250 µg/mL in data set [1], in data set [2] and in data set [3] was 20 to 30% in each case.
In turn, `C[C@H](c1ccccc1)N1C[C@H](C)C(Cl)(Cl)C1=O` [Compound 4] showed an IC50 with MCF-7 cells of 77.8 µg/mL (≈ 286 µM).

A word on the IC50: it is the midpoint of a concentration-inhibition curve. Low values mean inhibition by little substance, high ones a need for much substance. One may read the viability as the share of living cells, or the viability signal relative to a control.
